ChEMBL document CHEMBL1201862, “PubChem BioAssay data set” (2004)
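In this assay, cells in 96-well plates receive the compound at five concentrations for 48 hours. Endpoints are linearly interpolated between the surrounding concentrations. At the GI50, growth is halved.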 Active and inactive are the calls of the source. Rule as the data show it: active = GI50 up to about 1.1 µM and inactive = higher.

Legend:
Test in all cases: NCI anticancer screen, dose series, 48 h
[1] = system: A498
[2] = system: A549
[3] = system: EKVX
[4] = system: HCT-15
[5] = system: IGROV-1
[6] = system: K562
[7] = system: MDA-MB-231
[8] = system: MOLT-4
[9] = system: NCI-H23
[10] = system: NCI-H460
[11] = system: OVCAR-4
[12] = system: PC-3
[13] = system: RXF 393
[14] = system: SF-295
[15] = system: SF-539
[16] = system: SK-MEL-28
[17] = system: SK-MEL-2
[18] = system: T47D
[19] = system: TK-10
[20] = system: U-251

Measured: GI50

C/C=C/[C@H]1O[C@@](O)([C@@H](C)[C@H](O)[C@H](C)[C@H]2OC(=O)/C(OC)=C/C(C)=C/[C@@H](C)[C@@H](O)[C@@H](CC)[C@@H](O)[C@H](C)C/C(C)=C/C=C/[C@@H]2OC)C[C@H](OC2CC(O)C(O)C(C)O2)[C@@H]1C (stereo partly drawn)
active: [2] < 0.0075 µM | [3] < 0.0075 µM | [5] < 0.0075 µM | [6] < 0.0075 µM | [7] < 0.0075 µM | [8] < 0.0075 µM | [9] 0.406 µM | [10] < 0.0075 µM | [11] 0.244 µM | [12] < 0.0075 µM | [13] 0.121 µM | [14] < 0.0075 µM | [15] < 0.0075 µM | [16] 0.114 µM | [17] < 0.0075 µM | [18] < 0.0075 µM | [20] < 0.0075 µM
< 0.0075 µM: [4]
inactive: [1] 5.01 µM | [19] 9.48 µM

Oc1ccc(-c2cc(-c3cc(-c4ccc(O)cc4)no3)on2)cc1
inactive: [1] > 100 µM | [2] 50 µM | [3] 26.5 µM | [5] 43.7 µM | [6] 1.75 µM | [7] > 24.4 µM | [8] 1.35 µM | [9] > 100 µM | [10] 41.6 µM | [11] > 100 µM | [12] 13.2 µM | [13] > 100 µM | [14] 35.1 µM | [15] 4.13 µM | [16] > 100 µM | [17] > 48 µM | [18] 33.1 µM | [19] > 100 µM | [20] 39.9 µM
1.98 µM: [4]

O=C(N/N=C/c1ccc([N+](=O)[O-])cc1)Nc1ccc(C(=O)O)cc1
inactive: [1] 20.2 µM | [2] 35.3 µM | [3] 23.1 µM | [5] 33.1 µM | [6] 13.3 µM | [7] 28.6 µM | [8] 22.9 µM | [9] 23.2 µM | [10] 26.5 µM | [11] 21.2 µM | [12] 32.1 µM | [13] 26.1 µM | [14] 17.4 µM | [15] 49.3 µM | [16] 41.7 µM | [17] 25 µM | [18] 11 µM | [19] 34.4 µM | [20] 28.2 µM
25.5 µM: [4]

O=C1NC(=O)c2ccc([N+](=O)[O-])c3cccc1c23
5.31 µM: [4]
inactive: [1] 13.2 µM | [2] 20.8 µM | [3] 28.3 µM | [5] 15.9 µM | [6] 10.9 µM | [7] 17.1 µM | [9] 17.1 µM | [10] 11.5 µM | [11] 20 µM | [12] 17.4 µM | [13] 15.5 µM | [14] 17.6 µM | [15] 17.9 µM | [16] 20.2 µM | [17] 32.3 µM | [18] 18.6 µM | [19] 19.6 µM | [20] 15.4 µM

CCOC(=O)N/N=C(\CC)NO
> 100 µM: [4]
inactive: [1] > 100 µM | [2] > 100 µM | [3] > 100 µM | [5] > 100 µM | [6] > 100 µM | [7] > 100 µM | [8] > 100 µM | [9] > 100 µM | [10] > 100 µM | [11] > 100 µM | [12] > 100 µM | [13] > 100 µM | [15] > 100 µM | [16] > 100 µM | [17] > 100 µM | [18] > 100 µM | [19] > 100 µM | [20] > 100 µM

O=[N+]([O-])C(=C(Sc1ccccc1)Sc1ccccc1)C(Cl)=C(Cl)Cl
active: [6] 0.0923 µM | [7] 0.188 µM | [8] 0.051 µM | [11] 0.401 µM | [13] 0.413 µM | [16] 0.427 µM | [18] 0.278 µM | [19] 0.0948 µM
0.319 µM: [4]
inactive: [1] 3.44 µM | [2] 2.22 µM | [3] 2.05 µM | [5] 1.19 µM | [9] 1.24 µM | [10] 5.74 µM | [12] 2.26 µM | [14] 11.9 µM | [15] 2.13 µM | [17] 2.26 µM | [20] 1.53 µM

COc1cc2c(cc1OC)C1=CCC(c3ccccc3)[N+]1(C)CC2 (stereo not drawn)
inactive: [1] > 100 µM | [2] > 100 µM | [3] > 100 µM | [5] > 100 µM | [6] > 100 µM | [7] > 100 µM | [8] > 100 µM | [9] > 100 µM | [10] > 100 µM | [11] > 100 µM | [12] > 100 µM | [13] > 100 µM | [14] > 100 µM | [15] > 100 µM | [16] > 100 µM | [17] > 100 µM | [18] > 100 µM | [19] > 100 µM | [20] > 100 µM
> 100 µM: [4]
